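How tested: cells in 96-well plates exposed to compound for 48 hours at five concentrations. GI50: concentration for 50% inhibition of growth.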 The source made the active and inactive calls. No stated cut-off is given here; in the data, active = GI50 up to about 1.1 µM and inactive = higher.

Some test systems named below: SR; HT-29; NCI-H226; 786-0; KM-20L2; KM12; CAKI-1; SF-268; OVCAR-3; RXF 393; SK-OV-3; NCI-H23; CCRF-CEM; HOP-62; HCC 2998; DU-145; T47D; MDA-MB-231; BT-549.
Holding throughout (experiment): NCI-60 cell line screen, 48 h

On to `Cc1c(Cl)cccc1NC(=O)C(=O)C1C(=O)CC(C)(C)CC1=O`, for which the GI50 in the assay with SR, in the assay on HT-29, in the assay with NCI-H226, in the assay with 786-0, in the assay on KM-20L2 and in the assay with KM12 was > 100 µM (inactive) throughout. Moreover, the GI50 with CAKI-1, with SF-268, in the assay with OVCAR-3, in the assay on RXF 393, in the assay on SK-OV-3 and in the assay on NCI-H23 was > 100 µM (inactive) in each case. Moreover, the GI50 in the assay on CCRF-CEM, with HOP-62 and with HCC 2998 was > 100 µM (inactive) throughout.

Regarding `CCCCCCCCC(O)C#CC(N)=O` (configuration not stated), the GI50 in the assay on SR was 12.9 µM (inactive); in the assay with HT-29 it was 12.1 µM (inactive); in the assay with NCI-H226, 10.8 µM (inactive); with 786-0 it was 12.7 µM (inactive); with KM-20L2 it was 15.6 µM (inactive); in the assay on CAKI-1, 8.67 µM (inactive). Further, the GI50 with OVCAR-3 was 7.35 µM (inactive); in the assay with RXF 393, 13.7 µM (inactive); in the assay with NCI-H23, 17.6 µM (inactive); in the assay on CCRF-CEM, 15.5 µM (inactive); with HCC 2998 it was 10.6 µM (inactive).

As for `O=c1[nH]c(=O)n(C2OC(CO)C(O)C2O)cc1OCc1ccccc1` (configuration not stated), the GI50 in the assay with SR was > 50.1 µM (inactive); in the assay with HT-29, > 100 µM (inactive); in the assay on NCI-H226, > 100 µM (inactive); in the assay on 786-0 it was > 100 µM (inactive); with KM-20L2 it was > 81.7 µM (inactive); with KM12, > 100 µM (inactive). Besides, the GI50 with CAKI-1 was > 100 µM (inactive); in the assay with SF-268, > 100 µM (inactive); in the assay on OVCAR-3, > 100 µM (inactive); in the assay with RXF 393, > 57.4 µM (inactive); with SK-OV-3, > 100 µM (inactive); with NCI-H23, > 100 µM (inactive). Further, the figures for the GI50 in the assay with CCRF-CEM, in the assay on HOP-62 and with HCC 2998 were > 60.5 µM (inactive), > 100 µM (inactive) and > 100 µM (inactive), respectively.

Regarding `O=C1Nc2ccccc2N/C1=C\C(=O)c1ccccc1O`, the GI50 with SR, with HT-29, in the assay with NCI-H226, with 786-0, in the assay with KM-20L2 and with KM12 was > 100 µM (inactive) in each case. The GI50 in the assay with CAKI-1, in the assay with SF-268, with OVCAR-3, in the assay on RXF 393, in the assay on SK-OV-3 and in the assay on NCI-H23 was > 100 µM (inactive) throughout. For the same compound, the GI50 in the assay with CCRF-CEM, with HOP-62 and in the assay with HCC 2998 was > 100 µM (inactive) in each case.

For the compound `O=C(C(=O)c1cc2ccccc2[nH]1)c1cc2ccccc2[nH]1`, the GI50 with SR was 12.3 µM (inactive); in the assay with HT-29 it was > 347 µM (inactive); in the assay with NCI-H226, > 347 µM (inactive); in the assay with 786-0 it was > 284 µM (inactive); in the assay on KM-20L2, > 347 µM (inactive); with KM12 it was > 347 µM (inactive). The GI50 in the assay on CAKI-1 was 234 µM (inactive); in the assay with SF-268 it was > 347 µM (inactive); with OVCAR-3, 12.8 µM (inactive); in the assay on RXF 393, 91.4 µM (inactive); in the assay with SK-OV-3, > 347 µM (inactive); in the assay with NCI-H23 it was > 255 µM (inactive). Besides, the GI50 in the assay on CCRF-CEM is > 247 µM (inactive); in the assay with HOP-62, > 183 µM (inactive); with HCC 2998, > 347 µM (inactive).

For `Cc1cc2c(=O)c3ccccc3[nH]c2c(C(=O)O)c1C`, the GI50 in the assay on SR, in the assay on HT-29, in the assay with 786-0, with KM-20L2, in the assay on KM12 and in the assay with CAKI-1 was > 100 µM (inactive) each time. Moreover, the GI50 was > 100 µM (inactive) with OVCAR-3; 67.1 µM (inactive) in the assay with RXF 393; > 100 µM (inactive) in the assay on NCI-H23; > 100 µM (inactive) in the assay with CCRF-CEM; > 100 µM (inactive) in the assay with HOP-62; > 100 µM (inactive) in the assay with HCC 2998.

Take `CC12OC3(O)C4C5CC(C6C5C3C61)C42` (configuration not stated): the GI50 is > 100 µM (inactive) in the assay on SR; > 100 µM (inactive) with NCI-H226; 38.3 µM (inactive) in the assay with 786-0; > 100 µM (inactive) with KM-20L2; > 100 µM (inactive) with KM12; > 100 µM (inactive) in the assay on CAKI-1. The GI50 with SF-268, with RXF 393, in the assay on SK-OV-3, in the assay with CCRF-CEM, with HOP-62 and with HCC 2998 was > 100 µM (inactive) in each case.

Regarding `O=c1c2cccc3cccc(c4oc5c6cccc7cccc(c(=O)c5c14)c76)c32`, the GI50 was 7.66 µM (inactive) in the assay with SR; 13.8 µM (inactive) with HT-29; 17 µM (inactive) with NCI-H226; 11.2 µM (inactive) with 786-0; 15.4 µM (inactive) in the assay on KM-20L2; 13.8 µM (inactive) with KM12. Further, the GI50 with CAKI-1 is 15.8 µM (inactive); with SF-268, 13 µM (inactive); in the assay with OVCAR-3, 12 µM (inactive); in the assay on RXF 393, 11.2 µM (inactive); with SK-OV-3, 28.9 µM (inactive); in the assay with NCI-H23, 13.2 µM (inactive). For the same compound, the GI50 in the assay on CCRF-CEM is 5.47 µM (inactive); in the assay on HOP-62, > 100 µM (inactive); with HCC 2998, 27.2 µM (inactive).

Consider `CCC(=C(c1ccc(OCc2ccccc2)cc1)c1ccc(OCc2ccccc2)cc1)c1ccc(OC)cc1`, for which the GI50 in the assay on SR, in the assay with HT-29, in the assay on NCI-H226, in the assay with 786-0, in the assay on KM-20L2 and in the assay on KM12 was > 100 µM (inactive) each time. Also, the GI50 in the assay on CAKI-1, in the assay with SF-268, in the assay on OVCAR-3, with RXF 393, with SK-OV-3 and in the assay with NCI-H23 was > 100 µM (inactive) in each case. Moreover, the GI50 in the assay on CCRF-CEM, in the assay on HOP-62 and in the assay on HCC 2998 was > 100 µM (inactive) throughout.

Turning to `CN(C)CCNC(=O)c1cccc2nc3c(ccc4ccccc43)nc12`, the GI50 was 0.362 µM (active) with SR; 1.56 µM (inactive) in the assay on HT-29; 2.9 µM (inactive) with NCI-H226; 4.85 µM (inactive) in the assay with DU-145; 2.91 µM (inactive) in the assay on 786-0; 1.51 µM (inactive) in the assay on KM-20L2. Further, the GI50 is 2.09 µM (inactive) in the assay with KM12; 3.37 µM (inactive) in the assay on CAKI-1; 0.675 µM (active) in the assay on SF-268; 7.89 µM (inactive) with OVCAR-3; 3.2 µM (inactive) with RXF 393; 5.42 µM (inactive) with SK-OV-3. Besides, the GI50 with NCI-H23 is 3.9 µM (inactive); in the assay with T47D, 6.11 µM (inactive); with MDA-MB-231 it was 1.81 µM (inactive); in the assay on CCRF-CEM, 1.16 µM (inactive); with BT-549, 10.6 µM (inactive); with HOP-62, 2.25 µM (inactive). The GI50 in the assay with HCC 2998 is 1.98 µM (inactive).

Regarding `CC(=O)Nc1ccc(S(=O)(=O)N/N=C/CN2C(=O)c3ccccc3C2=O)cc1`, the GI50 with SR, in the assay with HT-29, in the assay on NCI-H226, in the assay on 786-0, in the assay with KM-20L2 and in the assay on KM12 was > 100 µM (inactive) each time. Besides, the GI50 in the assay with CAKI-1 was > 100 µM (inactive); in the assay with SF-268, > 100 µM (inactive); in the assay with RXF 393, 85.1 µM (inactive); with NCI-H23 it was > 100 µM (inactive); in the assay on CCRF-CEM, > 100 µM (inactive); in the assay on HOP-62 it was > 100 µM (inactive). Besides, the GI50 in the assay with HCC 2998 is > 100 µM (inactive).

On to `Cn1cnc2nc(Cl)nc(NC(C)(C)C(C)(C)O)c21`, for which the GI50 with SR, with HT-29, in the assay with NCI-H226, in the assay on 786-0, in the assay with KM-20L2 and in the assay with KM12 was > 100 µM (inactive) throughout. Also, the GI50 in the assay on CAKI-1, with SF-268, in the assay with OVCAR-3, with RXF 393, with SK-OV-3 and in the assay with NCI-H23 was > 100 µM (inactive) throughout. Further, the GI50 with CCRF-CEM, with HOP-62 and in the assay with HCC 2998 was > 100 µM (inactive) each time.

These data come from ChEMBL document CHEMBL1201862, “PubChem BioAssay data set” (2004).
